# Experimental data from patent US8178506B2, “Oligomeric compounds and compositions for use in modulation of small non-coding RNAs” (Regulus Therapeutics Inc., priority 2003, dated 2012).
# “And” between values parts separate entries of the source, which are not always exact repeats. Equal entries are not always repeated. In the oligonucleotide strings, read from the 5' end, every base follows the letter of its sugar. An asterisk marks phosphorothioate; unmarked linkages are phosphodiester. Other units and linkages are bracketed, terminal groups are in braces. A string of capitals states the bases alone. e = 2'-O-(2-methoxyethyl) (MOE); [5mC] = 5-methylcytosine; d = 2'-deoxy (DNA)
# Legend:
# T47D cells = test: Caspase-3 activity assay (apoptosis) in T47D cells; conditions: T47D cells, 48 hours; for Fold Increase over UTC (caspase-3 activity, apoptosis): 200 nM oligomeric compound; for Fold Increase over UTC (caspase activity): 200 nM, relative to untreated control
# HeLa cells = test: Cell cycle assay in HeLa cells; type: cell-based, human; conditions: HeLa cells; for % cells aneuploid / % cells in cell cycle phase G1 / % cells in cell cycle phase G2/M / % cells in cell cycle phase S / % cells in cell cycle phase subG1: 24 hours, relative to untreated control (UTC = 100)
# [1] = tested on: BJ, B16-F10, T47D, T47Dp53 and HeLa cells; test: Cell cycle assay (propidium iodide flow cytometry), cell line panel; type: cell-based; conditions: 150 nM oligomeric compound, 4.5 μg/ml LIPOFECTIN, after 72 hours, propidium iodide flow cytometry
# aP2 = aP2 mRNA expression in adipocytes (real-time PCR); type: cell-based, human; conditions: differentiating adipocytes transfected with oligomeric compound
# PPARγ = PPARγ mRNA expression in adipocytes (real-time PCR); type: cell-based, human; conditions: differentiating adipocytes transfected with oligomeric compound
# adipocytes = test: Triglyceride accumulation assay in adipocytes; type: cell-based, human; conditions: differentiating adipocytes transfected with oligomeric compound
# Glut4 = Glut4 mRNA expression in adipocytes (real-time PCR); type: cell-based, human; conditions: differentiating adipocytes transfected with oligomeric compound
# HSL = HSL mRNA expression in adipocytes (real-time PCR); type: cell-based, human; conditions: differentiating adipocytes transfected with oligomeric compound
# [2] = 150 nM oligomeric compound, 48 hours after treatment, relative to untreated control (UTC=100)
# [3] = 25 nM, 48 hours, percentage of cells in phase, average of replicates
# [4] = 50 nM, 48 hours, percentage of cells in phase, average of replicates
# [5] = 100 nM, 48 hours, percentage of cells in phase, average of replicates
# [6] = 150 nM, 48 hours, percentage of cells in phase, average of replicates
substance,measurement,setting,value
328374 (eA*eG*e[5mC]*eT*eT*dT*dA*dG*d[5mC]*dT*dG*dG*dG*dT*d[5mC]*eA*eG*eG*eA*e[5mC]; antisense) [compound 328374],"Fold Increase over UTC (caspase-3 activity, apoptosis)",T47D cells; experiment of Table 11,1.1 fold
same,% cells aneuploid,HeLa cells; 150 nM oligomeric compound,97%
same,% cells in cell cycle phase G1,HeLa cells; 150 nM oligomeric compound,54%
same,% cells in cell cycle phase G2/M,HeLa cells; 150 nM oligomeric compound,162%
same,% cells in cell cycle phase S,HeLa cells; 150 nM oligomeric compound,115%
same,% cells in cell cycle phase subG1,HeLa cells; 150 nM oligomeric compound,198%
same,% cells in cell cycle phase: G1,HeLa cells; [2],65%
same,% cells in cell cycle phase: G2/M,HeLa cells; [2],143%
same,% cells in cell cycle phase: S,HeLa cells; [2],157%
same,% cells in cell cycle phase: aneuploid,HeLa cells; [2],71%
same,% cells in cell cycle phase: subG1,HeLa cells; [2],787%
328383 (eA*eG*eA*eG*eG*dG*dG*dA*dG*dA*d[5mC]*dG*dA*dG*dA*eG*e[5mC]*eA*e[5mC]*eT) [compound 328383],"Fold Increase over UTC (caspase-3 activity, apoptosis)",T47D cells; experiment of Table 10,1.2 fold
same,% cells in cell cycle phase: G2/M,"HeLa cells; 25 nM, 48 hours",18%
same,% cells in cell cycle phase: G1,HeLa cells; [3],57%
same,% cells in cell cycle phase: S,HeLa cells; [3],25%
same,% cells in cell cycle phase: aneuploid,HeLa cells; [3],12%
same,% cells in cell cycle phase: subG1,HeLa cells; [3],1.9%
same,% cells in cell cycle phase: G2/M,"HeLa cells; 50 nM, 48 hours",18%
same,% cells in cell cycle phase: G1,HeLa cells; [4],56%
same,% cells in cell cycle phase: S,HeLa cells; [4],25%
same,% cells in cell cycle phase: aneuploid,HeLa cells; [4],13%
same,% cells in cell cycle phase: subG1,HeLa cells; [4],1.3%
same,% cells in cell cycle phase: G2/M,"HeLa cells; 100 nM, 48 hours",30%
same,% cells in cell cycle phase: G1,HeLa cells; [5],36%
same,% cells in cell cycle phase: S,HeLa cells; [5],34%
same,% cells in cell cycle phase: aneuploid,HeLa cells; [5],10%
same,% cells in cell cycle phase: subG1,HeLa cells; [5],9.3%
same,% cells aneuploid,HeLa cells; 150 nM oligomeric compound,92% and 98%
same,% cells in cell cycle phase G1,HeLa cells; 150 nM oligomeric compound,55% and 63%
same,% cells in cell cycle phase G2/M,HeLa cells; 150 nM oligomeric compound,222% and 183%
same,% cells in cell cycle phase S,HeLa cells; 150 nM oligomeric compound,82% and 97%
same,% cells in cell cycle phase subG1,HeLa cells; 150 nM oligomeric compound,314% and 289%
same,% cells in cell cycle phase: G1,HeLa cells; [2],53% and 54%
same,% cells in cell cycle phase: G2/M,HeLa cells; [2],124% and 150%
same,% cells in cell cycle phase: S,HeLa cells; [2],217% and 178%
same,% cells in cell cycle phase: aneuploid,HeLa cells; [2],90%
same,% cells in cell cycle phase: G2/M,"HeLa cells; 150 nM, 48 hours",34%
same,% cells in cell cycle phase: G1,HeLa cells; [6],29%
same,% cells in cell cycle phase: S,HeLa cells; [6],36%
same,% cells in cell cycle phase: aneuploid,HeLa cells; [6],11%
same,% cells in cell cycle phase: subG1,HeLa cells; [6],11.8%
328394 (eG*eT*eT*eT*eT*dT*dT*d[5mC]*dA*dA*dA*dT*d[5mC]*d[5mC]*d[5mC]*eA*eA*eA*e[5mC]*eT) [compound 328394],"Fold Increase over UTC (caspase-3 activity, apoptosis)",T47D cells; experiment of Table 12,0.8 fold
same,G1 (percentage of cells in phase of the cell cycle),[1],59.5%
same,G2/M (percentage of cells in phase of the cell cycle),[1],16%
same,S (percentage of cells in phase of the cell cycle),[1],24.5%
same,SubG1 (percentage of cells in phase of the cell cycle),[1],2.4%
same,aneuploid (percentage of cells),[1],18.3%
328400 (antisense eA*eG*eT*eT*e[5mC]*dA*dA*dA*dA*d[5mC]*dT*d[5mC]*dA*dA*dT*e[5mC]*e[5mC]*e[5mC]*eA*eA) [compound 328400],AP2 mRNA,aP2,34 percentage of untreated control (UTC)
same,PPAR gamma mRNA,PPARγ,67 percentage of untreated control (UTC)
same,TG (triglyceride accumulation),adipocytes,60 percentage of untreated control (UTC)
same,GLUT4 mRNA,Glut4,18 percentage of untreated control (UTC)
same,Fold Increase over UTC (caspase activity),T47D cells,1.3
same,HSL mRNA,HSL,40 percentage of untreated control (UTC)
328417 (antisense eT*eA*eA*eT*eT*dT*dT*dA*dG*dA*dA*dT*d[5mC]*dT*dT*eA*eA*e[5mC]*eG*e[5mC]) [compound 328417],AP2 mRNA,aP2,87 percentage of untreated control (UTC)
same,PPAR gamma mRNA,PPARγ,94 percentage of untreated control (UTC)
same,TG (triglyceride accumulation),adipocytes,83 percentage of untreated control (UTC)
same,GLUT4 mRNA,Glut4,68 percentage of untreated control (UTC)
same,Fold Increase over UTC (caspase activity),T47D cells,1.0
same,HSL mRNA,HSL,98 percentage of untreated control (UTC)
328421 (antisense eG*e[5mC]*eT*eT*eA*dG*d[5mC]*dT*dG*dT*dG*dT*d[5mC]*dT*dT*eA*e[5mC]*eA*eG*e[5mC]) [compound 328421],Fold Increase over UTC (caspase activity),T47D cells,1.2
same,% cells aneuploid,HeLa cells; 150 nM oligomeric compound,70%
same,% cells in cell cycle phase G1,HeLa cells; 150 nM oligomeric compound,47%
same,% cells in cell cycle phase G2/M,HeLa cells; 150 nM oligomeric compound,200%
same,% cells in cell cycle phase S,HeLa cells; 150 nM oligomeric compound,105%
same,% cells in cell cycle phase subG1,HeLa cells; 150 nM oligomeric compound,288%
same,% cells in cell cycle phase: G1,HeLa cells; [2],30%
same,% cells in cell cycle phase: G2/M,HeLa cells; [2],198%
same,% cells in cell cycle phase: S,HeLa cells; [2],202%
same,% cells in cell cycle phase: aneuploid,HeLa cells; [2],64%
same,% cells in cell cycle phase: subG1,HeLa cells; [2],1103%
328434 (antisense e[5mC]*eG*e[5mC]*eA*eT*d[5mC]*dT*dT*dG*dA*d[5mC]*dT*dG*dT*dA*eG*e[5mC]*eA*eT*eG) [compound 328434],AP2 mRNA,aP2,85 percentage of untreated control (UTC)
same,PPAR gamma mRNA,PPARγ,79 percentage of untreated control (UTC)
same,TG (triglyceride accumulation),adipocytes,91 percentage of untreated control (UTC)
same,GLUT4 mRNA,Glut4,83 percentage of untreated control (UTC)
same,"Fold Increase over UTC (caspase-3 activity, apoptosis)",T47D cells; experiment of Table 12,0.8 fold
same,HSL mRNA,HSL,96 percentage of untreated control (UTC)
